Laboratory results reported in patent US7507727B2, “Substituted quinobenzoxazine analogs and methods of using thereof” (Cylene Pharmaceuticals, Inc., priority 2003, dated 2009).
Read-outs that look alike come from different tables or passages of the source.

Assays:
[1] = system: HeLa cells; experiment: MTS cell proliferation and/or cytotoxicity assay; type: cell-based, Human; conditions: concentration at which 50% of antiproliferative cell response is seen, 3 days incubation, read-out: MTS Data Hella
Procedure: Cell culture. Human cervical epithelial cells (HeLa cells) were obtained from American Type Culture Collection (Manassas, Va.). Cells were grown in Eagle's minimum essential medium (MEM, Hyclone, Utah) supplemented with 2 mM Glutamine, 0.1 mM nonessential amino acid, 1 mM Na Pyruvate, 1.5 g/L NaHCO3, 50 mg/L gentamicin, and 10% fetal bovine serum (Hyclone, USA) in a humidified atmosphere of 5% CO2 at 37° C.
MTS assays. Antiproliferative effects of the compounds were tested by the CellTiter 96 AQueous assay (Promega, WI), which is a calorimetric assay for determining the number of viable cells. (See, e.g., Wang, L., et al., Methods Cell Sci (1996) 18:249-255). In one example, cells (4,500 cells/well) were seeded on 96 well flat bottom plates (Corning, N.Y.) in 100 μl of culture medium without any anticancer drug on day 0, and the culture medium was exchanged for that //contained anticancer drugs at various concentrations on day 1. After incubation for 3 days under normal growth conditions (on day 4), the monolayers were washed once in PBS, and the medium was switched to 100 μl of PBS in each of the 96 well plate. After mixing MTS and PMS at the ratio of 20:1, 20 μl of MTS/PMS solution was added to each of the 96 well plate and incubated for 4 hours in a humidified atmosphere of 5% CO2 at 37° C. The absorbance was read at 490 nm using FLUOstar Galaxy 96 well plate reader (BMG Labtechnologies, Germany). μM concentrations (MTS data) reported in Table 1 are concentrations at which 50% of antiproliferative cell response is seen.

[2] = molecular target: c-Myc template DNA (c-myc quadruplex); experiment: Quadruplex binding / stop assay (Taq polymerase arrest, capillary electrophoresis)
[3] = read-out: Stop Data c-Myc μM, concentration at which 50% of the DNA was arrested (arrested:full-length 1:1)
[4] = read-out: S DATA, Table 1D, stop assay data

SMILES	IC50 ([1]; Homo sapiens, HeLa, 72 h) [µM]	IC50 [2, 3] [µM]	IC50 [1] [µM]	IC50 [2, 4] [µM]
Nc1c(F)c(N2CCC(N)C2)c2c3c1c(=O)c(C(=O)O)cn3-c1cc3ccccc3cc1O2 (stereo not drawn) [compound 5]	7.2	1.75		
CC(C)(C)OC(=O)N[C@H]1CCN(c2c(F)cc3c(=O)c(C(=O)O)cn4c5cc6oc7cc([N+](=O)[O-])ccc7[nH]c6cc5oc2c34)C1 [compound 24]	7	0.5		
NC1CCN(c2c(F)cc3c(=O)c(C(=O)O)cn4c5cc6c(=O)c7ccccc7c(=O)c6cc5oc2c34)C1 (stereo not drawn) [compound 25]	0.2	0.25		
CN1CCCC1CCNC(=O)c1cn2c3c(c(NC[C@@H]4CCCO4)c(F)cc3c1=O)Oc1cc3ccccc3cc1-2 (stereo partly drawn) [compound 26]		4	0.73	
CCN(CC)CCCC(C)NC(=O)c1cn2c3c(c(N4CCC(c5cnccn5)C4)c(F)cc3c1=O)Oc1cc3ccccc3cc1-2 (stereo not drawn) [compound 27]	3.8	3		
CCN(CC)CCCC(C)NC(=O)c1cn2c3c(c(N4CCC(c5cnccn5)C4)c(F)cc3c1=O)Oc1ccccc1-2 (stereo not drawn) [compound 28]	2.5	3		
CCN(CC)CCCC(C)NC(=O)c1cn2c3c(c(N4CCC(c5cnccn5)C4)ccc3c1=O)Oc1ccccc1-2 (stereo not drawn) [compound 29]	2	3		
O=C(NCCN1CCCC1)c1cn2c3c(c(N4CCC(c5cnccn5)C4)ccc3c1=O)Oc1ccccc1-2 (stereo not drawn) [compound 30]	1.8	3		
O=C(NCCN1CCCC1)c1cn2c3c(c(NCC4CCCO4)c(F)cc3c1=O)Oc1cc3ccccc3cc1-2 (stereo not drawn) [compound 31]	1.4	3		
O=C(NCCN1CCCC1)c1cn2c3c(c(N4CCC(c5cnccn5)C4)c(F)cc3c1=O)Oc1ccccc1-2 (stereo not drawn) [compound 32]	0.6	3		
CN1CCCC1CCNC(=O)c1cn2c3c(c(NC[C@@H]4CCCO4)c(F)cc3c1=O)Oc1cc3ccccc3cc1-2 (stereo partly drawn) [compound 33]		3	0.29	
CN1CCCC1CCNC(=O)c1cn2c3c(c(NC[C@H]4CCCO4)c(F)cc3c1=O)Oc1cc3ccccc3cc1-2 (stereo partly drawn) [compound 34]	0.28	3		
N[C@H]1CCN(c2c(F)cc3c(=O)c(C(=O)NCCN4CCCC4)cn4c3c2Oc2ccccc2-4)C1 [compound 35]		3	0.21	
CN1CCCC1CCNC(=O)c1cn2c3c(c(N4CC[C@H](N)C4)c(F)cc3c1=O)Oc1ccccc1-2 (stereo partly drawn) [compound 36]	0.16	3		
O=C(N[C@H]1C(O)O[C@H](CO)[C@H](O)[C@@H]1O)c1cn2c3c(c(NCCCN4CCOCC4)c(F)cc3c1=O)Oc1cc3c(cc1-2)oc1ccccc13 (stereo partly drawn) [compound 37]	2.8	2.5		
CN1CCCC1CCNC(=O)c1cn2c3c(c(NC[C@H]4CCCO4)c(F)cc3c1=O)Oc1cc3ccccc3cc1-2 (stereo partly drawn) [compound 38]		2.5	0.26	
CN1CCCC1CCNC(=O)c1cn2c3c(c(NCCCN4CCCC4=O)c(F)cc3c1=O)Oc1cc3ccccc3cc1-2 (stereo not drawn) [compound 102]	2.2	1.8		
CN(C)C1CCN(c2c(F)cc3c(=O)c(C(=O)NCCC4CCCN4C)cn4c3c2Oc2cc3ccccc3cc2-4)C1 (stereo not drawn) [compound 104]	2.8	1.75		
CCN(CC)C1CCN(c2c(F)cc3c(=O)c(C(=O)NCCC4CCCN4C)cn4c3c2Oc2cc3ccccc3cc2-4)C1 (stereo not drawn) [compound 105]	2.8	1.75		
CN(C)CCCCNC(=O)c1cn2c3c(c(N4CC[C@@H](N)C4)c(F)cc3c1=O)Oc1ccccc1-2 [compound 106]	2.5	1.75		
O=C(NCCN1CCCC1)c1cn2c3c(c(NCCCN4CCOCC4)c(F)cc3c1=O)Oc1cc3c(O)ncnc3cc1-2 [compound 107]	1.8	1.75		
CN(C)CCCCNC(=O)c1cn2c3c(c(N4CC[C@H](N)C4)c(F)cc3c1=O)Oc1ccccc1-2 [compound 108]	0.46	1.75		
N[C@H]1CCN(c2c(F)cc3c(=O)c(C(=O)NCCN4CCCC4)cn4c3c2Oc2ccccc2-4)C1 [compound 109]	0.31	1.75		
CN1CCCC1CCNC(=O)c1cn2c3c(c(N4CC[C@@H](N)C4)c(F)cc3c1=O)Oc1c-2ccc2ccccc12 (stereo partly drawn) [compound 110]	0.25	1.75		
CN1CCCC1CCNC(=O)c1cn2c3c(c(N4CC[C@@H](N)C4)c(F)cc3c1=O)Oc1ccccc1-2 (stereo partly drawn) [compound 111]	0.22	1.75		
N[C@@H]1CCN(c2c(F)cc3c(=O)c(C(=O)NCCN4CCCC4)cn4c3c2Oc2ccccc2-4)C1 [compound 112]	0.22	1.75		

SMILES	IC50 ([1]; Homo sapiens, HeLa, 72 h) [µM]	IC50 [2, 3] [µM]	IC50 [1] [µM]	IC50 [2, 4] [µM]
O=C(NCCN1CCCC1)c1cn2c3c(c(N4CCC(c5cnccn5)C4)ccc3c1=O)Oc1cc3ccccc3cc1-2 (stereo not drawn) [compound 303]	2.1	1.5		
CN1CCCC1CCNC(=O)c1cn2c3c(c(NCCN4CCCC4)c(F)cc3c1=O)Oc1cc3c(cc1-2)oc1ccccc13 (stereo not drawn) [compound 306]	3.2	1		
CN(CCc1ccccn1)C(=O)c1cn2c3c(c(NCCCN4CCOCC4)c(F)cc3c1=O)Oc1cc3c(cc1-2)-c1ccccc1C3 [compound 307]	3.1	1		
O=C(CCN1CCCCC1)N[C@@H]1CCN(c2c(F)cc3c(=O)c(C(=O)NCCN4CCCC4)cn4c3c2Oc2cc3c(cc2-4)oc2ccccc23)C1 [compound 308]	3.1	1		
CCN(CC)CCCC(C)NC(=O)c1cn2c3c(c(N4CCC(c5cnccn5)C4)ccc3c1=O)Oc1cc3ccccc3cc1-2 (stereo not drawn) [compound 309]	3	1		
COc1ccc(CCNc2c(F)cc3c(=O)c(C(=O)NCCC4CCCN4C)cn4c3c2Oc2cc3ccccc3cc2-4)cc1OC (stereo not drawn) [compound 310]	2.3	1		
CN1CCCC1CCNC(=O)c1cn2c3c(c(N4CCC(N)C4)c(F)cc3c1=O)Oc1cc(-c3nc4ccccc4s3)ccc1-2 (stereo not drawn) [compound 311]	2.1	1		
CN1CCCC1CCNC(=O)c1cn2c3c(c(NCCCN)c(F)cc3c1=O)Oc1cc(Cl)ccc1-2 (stereo not drawn) [compound 1809]				> 15
CN1CCCC1CCNC(=O)c1cn2c3c(c(N4CCN(c5ncccn5)CC4)c(F)cc3c1=O)Oc1cc(Cl)ccc1-2 (stereo not drawn) [compound 1810]				7.8
CC(=O)N1CCN(c2c(F)cc3c(=O)c(C(=O)NCCN4CCCC4)cn4c3c2Oc2cc(Cl)ccc2-4)CC1 [compound 1812]				3.2
O=C(NCCN1CCCC1)c1cn2c3c(c(N4CCN(c5ncccn5)CC4)c(F)cc3c1=O)Oc1cc(Cl)ccc1-2 [compound 1813]				5.1
O=C(NCCN1CCCC1)c1cn2c3c(c(NCCN4CCOCC4)c(F)cc3c1=O)Oc1cc(Cl)ccc1-2 [compound 1814]				7.2
O=C(NCCN1CCCC1)c1cn2c3c(c(N4CCOCC4)c(F)cc3c1=O)Oc1cc(Cl)ccc1-2 [compound 1815]				10
CN1CCN(c2c(F)cc3c(=O)c(C(=O)NCCN4CCCC4)cn4c3c2Oc2cc(Cl)ccc2-4)CC1 [compound 1817]				10
CN1CCCC1CCNC(=O)c1cn2c3c(c(N4CCN(C(=O)OC(C)(C)C)CC4)c(F)cc3c1=O)Oc1cc(Cl)ccc1-2 (stereo not drawn) [compound 1819]				10
O=C(NCCN1CCCC1)c1cn2c3c(c(N4CCN(C(=O)C(F)(F)F)CC4)c(F)cc3c1=O)Oc1cc(Cl)ccc1-2 [compound 1821]				10
CCC(=O)N1CCN(c2c(F)cc3c(=O)c(C(=O)NCCN4CCCC4)cn4c3c2Oc2cc(Cl)ccc2-4)CC1 [compound 1822]				10
CC(C)C(=O)N1CCN(c2c(F)cc3c(=O)c(C(=O)NCCN4CCCC4)cn4c3c2Oc2cc(Cl)ccc2-4)CC1 [compound 1823]				10
O=C(NCCN1CCCC1)c1cn2c3c(c(N4CCN(C(=O)N5CCC[C@H]5C(=O)C(F)(F)F)CC4)c(F)cc3c1=O)Oc1cc(Cl)ccc1-2 [compound 1824]				9.4
COCC(=O)N1CCN(c2c(F)cc3c(=O)c(C(=O)NCCN4CCCC4)cn4c3c2Oc2cc(Cl)ccc2-4)CC1 [compound 1825]				10
O=C(NCCN1CCCC1)c1cn2c3c(c(N4CCN(Cc5ccco5)CC4)c(F)cc3c1=O)Oc1cc(Cl)ccc1-2 [compound 1829]				10
Cn1cccc1CN1CCN(c2c(F)cc3c(=O)c(C(=O)NCCN4CCCC4)cn4c3c2Oc2cc(Cl)ccc2-4)CC1 [compound 1830]				8.6
O=C(NCCN1CCCC1)c1cn2c3c(c(N4CCN(Cc5ccsc5)CC4)c(F)cc3c1=O)Oc1cc(Cl)ccc1-2 [compound 1831]				9.8
O=C(NCCN1CCCC1)c1cn2c3c(c(N4CCN(Cc5ccoc5)CC4)c(F)cc3c1=O)Oc1cc(Cl)ccc1-2 [compound 1832]				10
O=C(NCCN1CCCC1)c1cn2c3c(c(N4CCN(Cc5ccc[nH]5)CC4)c(F)cc3c1=O)Oc1cc(Cl)ccc1-2 [compound 1833]				10
